Experimental data reported in patent publication US11492385B2, “Long-acting co-agonists of the glucagon and GLP-1 receptors” (Merck Sharp & Dohme Corp., priority 2015, dated 2022).
Entries after “also recorded” stand apart in the source; their conditions may differ. Starred links: 1 amine or outer side, 2 acyl side, 3 side chain; linkers in the order of their positions; H or OH if unused. Non-standard residues stand in square brackets, D forms with d. Residues, ends and D or L forms follow the SMILES beside them. Groups on a side chain read outwards from the residue. No end group written: not given here. *: point of attachment. Phe(4-CH2NH2) = NCc1ccc(C[C@H](N)C(=O)O)cc1; C18 diacid = O=C(O)CCCCCCCCCCCCCCCCC(=O)*; C16 diacid = O=C(O)CCCCCCCCCCCCCCC(=O)*; γGlu = O=C(O)[C@H](CCC(=O)[*:2])N[*:1]; Met(O2) = CS(=O)(=O)CC[C@H](N)C(=O)O; αMeD = C[C@](N)(CC(=O)O)C(=O)O; AEEA = NCCOCCOCC(=O)O; Aib = CC(C)(N)C(=O)O

Key:
[1] = Duration of action in DIO mice: body weight after a single sc dose; type: in vivo; conditions: for change in body weight over four days: single sc dose at day zero, compared to liraglutide and semaglutide (FIG. 1A)
Procedure: (§1) In this example, the duration of action of several of the peptides or co-agonist peptides was evaluated in diet-induced obese (DIO) mice. The duration of action of the peptides were compared to the duration of action of Semaglutide (sema) and Liraglutide (lira). The peptides tested were SEQ ID NOs: 2, 19, 28, 29, and 33 (Seq 2, Seq 19, Seq 28, Seq 29, and Seq 33, respectively).

[2] = Duration of action in DIO mice: food intake after a single sc dose; type: in vivo; conditions: for change in food intake over four days: single sc dose at day zero, compared to liraglutide and semaglutide (FIG. 1B)
Procedure: as §1

[3] = Duration of action in DIO mice: blood glucose after a single sc dose; type: in vivo; conditions: single sc dose at day zero, compared to liraglutide and semaglutide (FIG. 1C)
Procedure: as §1

[4] = mouse, in vivo, sc
Procedure: DIO mice were divided into groups of eight mice per group and the initial average body weight, food intake and basal glucose of each group were matched. Each group of mice was subcutaneously (sc) injected with a single dose of peptide or vehicle control. The administered doses varied between 3 and 300 nmol/kg. […] A separate set of mice were treated with same dose of each peptide. Serial blood was taken at 5 hours, 24 hours, 48 hours and 72 hours post sc injection to measure drug exposure.

[5] = target: T1, human GCGR (Homo sapiens, UniProt P47871); assay: cAMP activity assay, cells expressing human GCGR; type: cell-based
T1 construct: expressed in transfected cells; kept under Blasticidin and Hygromycin selection
Method in brief: (§2)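 cAMP production in human GLP1R- or GCGR-expressing cells was read by luminescence after overnight dark incubation at room temperature. Peptides were given as 10-point DMSO dilution series, with native GLP-1 and glucagon as references. Four-parameter logistic fitting gave EC50.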

[6] = target: T2, human GLP1R (Homo sapiens, UniProt P43220); assay: cAMP activity assay, cells expressing human GLP1R; type: cell-based; conditions: cAMP production, assay buffer with or without 20% human serum (not stated which)
T2 construct: expressed in transfected cells; kept under Blasticidin and Hygromycin selection
Method in brief: as §2

T1 sequence (P47871 26-477): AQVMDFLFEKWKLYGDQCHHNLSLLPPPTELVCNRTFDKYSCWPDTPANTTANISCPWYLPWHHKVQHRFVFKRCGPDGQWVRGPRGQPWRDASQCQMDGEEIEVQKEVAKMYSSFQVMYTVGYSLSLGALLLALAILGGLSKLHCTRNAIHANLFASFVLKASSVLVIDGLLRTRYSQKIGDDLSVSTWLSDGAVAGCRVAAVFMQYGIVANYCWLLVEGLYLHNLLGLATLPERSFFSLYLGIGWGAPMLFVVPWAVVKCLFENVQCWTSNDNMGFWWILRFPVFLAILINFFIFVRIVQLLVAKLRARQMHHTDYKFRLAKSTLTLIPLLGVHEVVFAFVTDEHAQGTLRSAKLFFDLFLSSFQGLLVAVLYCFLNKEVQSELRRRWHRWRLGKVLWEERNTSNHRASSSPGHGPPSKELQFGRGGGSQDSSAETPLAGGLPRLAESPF
T2 sequence (P43220 24-463): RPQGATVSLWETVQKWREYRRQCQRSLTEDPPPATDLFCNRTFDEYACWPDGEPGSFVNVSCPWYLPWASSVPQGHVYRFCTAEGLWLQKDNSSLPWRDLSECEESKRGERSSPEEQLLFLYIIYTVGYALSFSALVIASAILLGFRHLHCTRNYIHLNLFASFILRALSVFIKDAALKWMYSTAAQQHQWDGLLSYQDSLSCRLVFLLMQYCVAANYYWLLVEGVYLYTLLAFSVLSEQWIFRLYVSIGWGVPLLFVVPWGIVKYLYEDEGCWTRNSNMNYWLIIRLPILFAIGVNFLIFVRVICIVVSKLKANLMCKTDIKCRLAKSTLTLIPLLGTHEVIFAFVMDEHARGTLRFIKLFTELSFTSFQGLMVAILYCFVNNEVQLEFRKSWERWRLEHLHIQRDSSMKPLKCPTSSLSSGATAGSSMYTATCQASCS

Compound: HXQGTFTSDYSKYLDARAAK( ? -γE-C18—OH)DFVQWL2DT—NH2 (H[Aib]QGTFTSDYSKYLDARAAK([AEEA-AEEA-γGlu-C18‑OH])DFVQWL[Met(O2)]DT-NH2) [SEQ ID NO: 29]
- change in body weight over four days ([1]; listed as Seq 29): more pronounced and sustained change in body weight; also recorded: particularly pronounced
- change in food intake over four days ([2]; listed as Seq 29): more sustained reduction in food intake; also recorded: particularly evident
- blood glucose lowering effect over four days ([3]; listed as Seq 29): greater reduction in blood glucose
- blood glucose lowering effect over four days ([3]; listed as Seq29): particularly effective

Compound: HsQGTFTSDYSKYLDARAAK( ? -γE-C16—OH)DFVQWLLDT—NH2 (H[dS]QGTFTSDYSKYLDARAAK([AEEA-AEEA-γGlu-C16 diacid])DFVQWLLDT-NH2; N-terminus assumed; SMILES CC(C)C[C@H](NC(=O)[C@H](Cc1ccc(O)cc1)NC(=O)[C@H](CCCCN)NC(=O)[C@H](CO)NC(=O)[C@H](Cc1ccc(O)cc1)NC(=O)[C@H](CC(=O)O)NC(=O)[C@H](CO)NC(=O)[C@@H](NC(=O)[C@H](Cc1ccccc1)NC(=O)[C@@H](NC(=O)CNC(=O)[C@H](CCC(N)=O)NC(=O)[C@@H](CO)NC(=O)[C@@H](N)Cc1c[nH]cn1)[C@@H](C)O)[C@@H](C)O)C(=O)N[C@@H](CC(=O)O)C(=O)N[C@@H](C)C(=O)N[C@@H](CCCNC(=N)N)C(=O)N[C@@H](C)C(=O)N[C@@H](C)C(=O)N[C@@H](CCCCNC(=O)COCCOCCNC(=O)COCCOCCNC(=O)CC[C@H](NC(=O)CCCCCCCCCCCCCCC(=O)O)C(=O)O)C(=O)N[C@@H](CC(=O)O)C(=O)N[C@@H](Cc1ccccc1)C(=O)N[C@H](C(=O)N[C@@H](CCC(N)=O)C(=O)N[C@@H](Cc1c[nH]c2ccccc12)C(=O)N[C@@H](CC(C)C)C(=O)N[C@@H](CC(C)C)C(=O)N[C@@H](CC(=O)O)C(=O)N[C@H](C(N)=O)[C@@H](C)O)C(C)C) [SEQ ID NO: 2]
- change in body weight over four days [1]: more pronounced and sustained change in body weight
- change in food intake over four days [2]: more sustained reduction in food intake

Compound: HXQGTFTSDYSKYLDARAAK( ? -γE-C18—OH)DFVQWL2αMDT—NH2 (H[Aib]QGTFTSDYSKYLDARAAK([AEEA-AEEA-γGlu-C18‑OH])DFVQWL[Met(O2)][αMeD]T-NH2) [SEQ ID NO: 33]
- change in body weight over four days ([1]; listed as Seq 33): more pronounced and sustained change in body weight; also recorded: particularly pronounced
- change in food intake over four days ([2]; listed as Seq 33): more sustained reduction in food intake; also recorded: particularly evident
- blood glucose lowering effect over four days ([3]; listed as Seq 33): greater reduction in blood glucose; also recorded: particularly effective
- PK over three days [4]: more prolonged PK

Compound: HXQGTFTSDpAF( ? -γE-C18—OH)SKYLDARAAQDFVQWL2DT—NH2 (H[Aib]QGTFTSD[Phe(4-CH2NH2)]([AEEA-AEEA-γGlu-C18‑OH])SKYLDARAAQDFVQWL[Met(O2)]DT-NH2) [SEQ ID NO: 28]
- change in body weight over four days [1]: more pronounced and sustained change in body weight
- change in food intake over four days [2]: more sustained reduction in food intake
- blood glucose lowering effect over four days [3]: greater reduction in blood glucose

Compound: HXQGTFTSDYSKYLDARAAK( ? -γE-C16—OH)DFVQWL2DT—NH2 (H[Aib]QGTFTSDYSKYLDARAAK([AEEA-AEEA-γGlu-C16 diacid])DFVQWL[Met(O2)]DT-NH2; N-terminus assumed; SMILES CC(C)C[C@H](NC(=O)[C@H](Cc1ccc(O)cc1)NC(=O)[C@H](CCCCN)NC(=O)[C@H](CO)NC(=O)[C@H](Cc1ccc(O)cc1)NC(=O)[C@H](CC(=O)O)NC(=O)[C@H](CO)NC(=O)[C@@H](NC(=O)[C@H](Cc1ccccc1)NC(=O)[C@@H](NC(=O)CNC(=O)[C@H](CCC(N)=O)NC(=O)C(C)(C)NC(=O)[C@@H](N)Cc1c[nH]cn1)[C@@H](C)O)[C@@H](C)O)C(=O)N[C@@H](CC(=O)O)C(=O)N[C@@H](C)C(=O)N[C@@H](CCCNC(=N)N)C(=O)N[C@@H](C)C(=O)N[C@@H](C)C(=O)N[C@@H](CCCCNC(=O)COCCOCCNC(=O)COCCOCCNC(=O)CC[C@H](NC(=O)CCCCCCCCCCCCCCC(=O)O)C(=O)O)C(=O)N[C@@H](CC(=O)O)C(=O)N[C@@H](Cc1ccccc1)C(=O)N[C@H](C(=O)N[C@@H](CCC(N)=O)C(=O)N[C@@H](Cc1c[nH]c2ccccc12)C(=O)N[C@@H](CC(C)C)C(=O)N[C@@H](CCS(C)(=O)=O)C(=O)N[C@@H](CC(=O)O)C(=O)N[C@H](C(N)=O)[C@@H](C)O)C(C)C) [SEQ ID NO: 19]
- change in body weight over eight days ([1]; single dose at 20 nmol/kg or 60 nmol/kg at day zero, compared to liraglutide and semaglutide (FIG. 3A)): more pronounced and sustained change in body weight
- change in body weight over four days [1]: more pronounced and sustained change in body weight
- change in food intake over eight days ([2]; single dose at 20 nmol/kg or 60 nmol/kg at day zero, compared to liraglutide and semaglutide (FIG. 3B)): comparable to liraglutide or semiglutide in reducing food intake
- change in food intake over four days [2]: more sustained reduction in food intake
- blood glucose lowering effect over four days [3]: greater reduction in blood glucose
- PK over three days [4]: more prolonged PK

Compound: CC(C)C[C@H](NC(=O)[C@H](CC(C)C)NC(=O)[C@H](CCCCN)NC(=O)[C@H](CO)NC(=O)[C@H](Cc1ccc(O)cc1)NC(=O)[C@H](CC(=O)O)NC(=O)[C@H](CO)NC(=O)[C@@H](NC(=O)[C@H](Cc1ccccc1)NC(=O)[C@@H](NC(=O)CNC(=O)[C@H](CCC(N)=O)NC(=O)C(C)(C)NC(=O)[C@@H](N)Cc1c[nH]cn1)[C@@H](C)O)[C@@H](C)O)C(=O)N[C@@H](CC(=O)O)C(=O)N[C@@H](C)C(=O)N[C@@H](CCCNC(=N)N)C(=O)N[C@@H](C)C(=O)N[C@@H](C)C(=O)N[C@@H](CCCCNC(=O)COCCOCCNC(=O)COCCOCCNC(=O)CC[C@H](NC(=O)CCCCCCCCCCCCCCCCC(=O)O)C(=O)O)C(=O)N[C@@H](CC(=O)O)C(=O)N[C@@H](Cc1ccccc1)C(=O)N[C@H](C(=O)N[C@@H](CCC(N)=O)C(=O)N[C@@H](Cc1c[nH]c2ccccc12)C(=O)N[C@@H](CC(C)C)C(=O)N[C@@H](CCS(C)(=O)=O)C(=O)N[C@@H](CC(=O)O)C(=O)N[C@H](C(N)=O)[C@@H](C)O)C(C)C [compound 76] (H-H[Aib]QGTFTSDYSKLLDARAAK([AEEA-AEEA-γGlu-C18 diacid])DFVQWL[Met(O2)]DT-NH2; N-terminus assumed)
- EC50 ([5]; cAMP production, cells expressing human GCGR, assay buffer with or without 20% human serum (not stated which), read-out: GCGR EC50 human): 740 pM
- hGCGR/hGLP1R (hTone) ([5]; ratio of human GCGR EC50 to human GLP1R EC50): 1.2
- EC50 [6]: 610 pM
